Laboratory results taken from patent publication US20220204539A1, “CD73 INHIBITORS” (BioArdis LLC, priority 2019, published 2022).

Columns and labels:
[1] = molecular target: T1, Recombinant Human 5′-Nucleotidase (CD73) (Homo sapiens, UniProt P21589); test: CD73 Enzyme Assay; assay type: biochemical; details: human CD73 0.5 nM, AMP 30 μM, PiColorLock phosphate detection; read-out: Potency (IC50, CD73 enzyme assay)
T1 construct: CHO derived CD73 (Trp27-Lys547), with a C-terminal 6-His tag; 6-His (C); purchased R&D 5795-EN; host or cells: CHO
T1 sequence (P21589 27-547): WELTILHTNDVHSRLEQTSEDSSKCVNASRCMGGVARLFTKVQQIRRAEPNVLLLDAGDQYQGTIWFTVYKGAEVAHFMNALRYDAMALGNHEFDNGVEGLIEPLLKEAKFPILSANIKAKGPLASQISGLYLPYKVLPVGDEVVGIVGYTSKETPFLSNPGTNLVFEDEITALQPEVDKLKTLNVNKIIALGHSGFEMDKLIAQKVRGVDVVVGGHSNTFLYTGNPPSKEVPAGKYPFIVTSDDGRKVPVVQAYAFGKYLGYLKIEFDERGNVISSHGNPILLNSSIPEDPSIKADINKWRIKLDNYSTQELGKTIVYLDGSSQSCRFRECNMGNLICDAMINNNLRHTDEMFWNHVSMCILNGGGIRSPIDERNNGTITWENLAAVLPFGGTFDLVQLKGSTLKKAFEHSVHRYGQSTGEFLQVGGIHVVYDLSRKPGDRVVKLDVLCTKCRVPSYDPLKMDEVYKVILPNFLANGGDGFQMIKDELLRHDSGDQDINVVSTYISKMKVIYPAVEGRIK
In short: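 Human CD73 (CHO-derived Trp27-Lys547, His-tagged; 0.5 nM final) was preincubated with compound for 15 min at 25° C. in Tris pH 7.5 buffer with MgCl2. It then reacted with 30 μM AMP for 20 min at 37° C., and released phosphate was read by malachite green absorbance at 635 nm. IC50 came from four-parameter fits against enzyme and no-enzyme controls.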

[2] = molecular target: T2, Cell surface CD73 of U87 MG human glioblastoma cells (Homo sapiens, UniProt P21589); test: CD73 Cellular Assay; assay type: cell-based; details: 5000 cells per well, 30 μM AMP substrate, read-out: Potency (IC50, CD73 cellular assay)
T2 construct: Cell surface CD73 catalyzes the conversion of adenosine monophosphate (AMP) to adenosine and inorganic phosphate; endogenous in cells; host or cells: U87 MG human glioblastoma cells
T2 sequence (P21589 27-549): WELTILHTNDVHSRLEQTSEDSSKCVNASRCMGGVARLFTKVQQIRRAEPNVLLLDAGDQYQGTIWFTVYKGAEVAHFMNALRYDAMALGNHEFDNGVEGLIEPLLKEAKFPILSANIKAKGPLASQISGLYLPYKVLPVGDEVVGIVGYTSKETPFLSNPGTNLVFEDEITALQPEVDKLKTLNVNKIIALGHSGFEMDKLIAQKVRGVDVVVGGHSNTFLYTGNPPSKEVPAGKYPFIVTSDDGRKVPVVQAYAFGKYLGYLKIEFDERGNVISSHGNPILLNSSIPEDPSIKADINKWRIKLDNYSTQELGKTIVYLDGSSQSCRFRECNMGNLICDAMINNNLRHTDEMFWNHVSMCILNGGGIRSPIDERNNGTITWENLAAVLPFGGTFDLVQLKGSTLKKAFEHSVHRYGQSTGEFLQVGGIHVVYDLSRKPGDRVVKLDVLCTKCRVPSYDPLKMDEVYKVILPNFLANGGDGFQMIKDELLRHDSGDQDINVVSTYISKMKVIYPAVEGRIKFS
In short: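 U87 MG cells (5000/well) preincubated with compound 30 min at 37 °C, 5% CO2, in HEPES-buffered saline pH 7.4 with 0.5% DMSO, then 30 μM AMP (final) for 50 min. Released phosphate in supernatant read colorimetrically at 635 nm; IC50 from four-parameter logistic fit versus cells-plus-substrate and cells-only controls.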

[3] = test system: CT-26 murine colon carcinoma; test: subcutaneous CT-26 murine colon carcinoma syngeneic model, combination therapy; assay type: in vivo; details: combination with anti-mPDI antibody 10 mg/kg i.p. twice weekly, 4 doses; compound 10 mg/kg iv once a day from day 6 post implant; CT-26 in BALB/c female mice
Description: Some compounds were evaluated preclinically for in vivo therapeutic efficacy as single agents or in combination with other agents. Compounds of the invention show potent anti-tumor effects when dosed in combination with, for example, an anti-mPDI antibody as evidenced by reducing tumor volume in a subcutaneous CT-26 murine colon carcinoma syngeneic model in BALB/c female mice. CT-26 tumor cells were implanted subcutaneously into BALB/c female mice for each experiment. Anti-mPDl antibody (10 mg/kg) was dosed i.p. starting on study day 6 post implant twice weekly for a total of 4 doses. Compound No. 65 (10 mg/kg) or vehicle was administered iv once a day starting on day 6 post implant.

| Compound | IC50 [1] | IC50 [2] | tumor volume [3] |
| --- | --- | --- | --- |
| O=P(O)(O)CP(=O)(O)OC[C@H]1O[C@@H](c2cnc3c(N4CCCC4)nc(Cl)nn23)[C@H](O)[C@@H]1O [Compound 65, [({[(2R,3S,4R,5S)-5-[2-chloro-4-(pyrrolidin-1-yl)imidazo[2,1-f][1,2,4]triazin-7-yl]-3,4-dihydroxyoxolan-2-yl]methoxy}(hydroxy)phosphoryl)methyl]phosphonic Acid] | < 10 nM | < 1 nM | reduction in tumor volume |
| O=P(O)(O)CP(=O)(O)OC[C@H]1O[C@@H](c2cnc3c(N[C@@H]4CCOC4)nc(Cl)nn23)[C@H](O)[C@@H]1O [Compound 22, (((((2R,3S,4R,1S)-5-(2-chloro-4-(((R)-tetrahydrofuran-3-yl)amino)imidazo[2,1-f][1,2,4]triazin-7-yl)-3,4-dihydroxytetrahydrofuran-2-yl)methoxy)(hydroxy)phosphoryl)methyl)phosphonic Acid] | < 10 nM | < 1 nM | – |
| O=P(O)(O)CP(=O)(O)OC[C@H]1O[C@@H](c2cnc3c(N4CCc5ccccc5C4)nc(Cl)nn23)[C@H](O)[C@@H]1O [Compound 19, (((((2R,3S,4R,1S)-5-(2-chloro-4-(3,4-dihydroisoquinolin-2(1H)-yl)imidazo[2,1-f][1,2,4]triazin-7-yl)-3,4-dihydroxytetrahydrofuran-2-yl)methoxy)(hydroxy)phosphoryl)methyl)phosphonic Acid] | < 10 nM | < 1 nM | – |
| C[C@H](Nc1nc(Cl)nn2c([C@@H]3O[C@H](COP(=O)(O)CP(=O)(O)O)[C@@H](O)[C@H]3O)cnc12)c1ccccc1 [Compound 35, (((((2R,3S,4R,1S)-5-(2-chloro-4-(((S)-1-phenylethyl)amino)imidazo[2,1-f][1,2,4]triazin-7-yl)-3,4-dihydroxytetrahydrofuran-2-yl)methoxy)(hydroxy)phosphoryl)methyl)phosphonic Acid] | < 10 nM | < 1 nM | – |
| CO[C@H]1CC[C@@H](Nc2nc(Cl)nn3c([C@@H]4O[C@H](COP(=O)(O)CP(=O)(O)O)[C@@H](O)[C@H]4O)cnc23)CC1 [Compound 27, (((((2R,3S,4R,1S)-5-(2-chloro-4-(((1s,4R)-4-methoxycyclohexyl)amino)imidazo[2,1-f][1,2,4]triazin-7-yl)-3,4-dihydroxytetrahydrofuran-2-yl)methoxy)(hydroxy)phosphoryl)methyl)phosphonic Acid] | < 10 nM | < 1 nM | – |
| CO[C@H]1CC[C@H](Nc2nc(Cl)nn3c([C@@H]4O[C@H](COP(=O)(O)CP(=O)(O)O)[C@@H](O)[C@H]4O)cnc23)CC1 [Compound 17, (((((2R,3S,4R,1S)-5-(2-chloro-4-(((1r,4S)-4-methoxycyclohexyl)amino)imidazo[2,1-f][1,2,4]triazin-7-yl)-3,4-dihydroxytetrahydrofuran-2-yl)methoxy)(hydroxy)phosphoryl)methyl)phosphonic acid] | < 10 nM | < 1 nM | – |
| O=P(O)(O)CP(=O)(O)OC[C@H]1O[C@@H](c2cnc3c(N4CCC(F)(F)C4)nc(Cl)nn23)[C@@H](F)[C@@H]1O [Compound 75, (((((2R,3R,4S,5S)-5-(2-chloro-4-(3,3-difluoropyrrolidin-1-yl)imidazo[2,1-f][1,2,4]triazin-7-yl)-4-fluoro-3-hydroxytetrahydrofuran-2-yl)methoxy)(hydroxy)phosphoryl)methyl)phosphonic Acid] | 10 to 99 nM | 1 to 9.9 nM | – |
| O=P(O)(O)CP(=O)(O)OC[C@H]1O[C@@H](c2cnc3c(N4CCC(F)(F)CC4)nc(Cl)nn23)[C@H](O)[C@@H]1O [Compound 44, (((((2R,3S,4R,1S)-5-(2-chloro-4-(4,4-difluoropiperidin-1-yl)imidazo[2,1-f][1,2,4]triazin-7-yl)-3,4-dihydroxytetrahydrofuran-2-yl)methoxy)(hydroxy)phosphoryl)methyl)phosphonic Acid] | < 10 nM | < 1 nM | – |
| O=P(O)(O)CP(=O)(O)OC[C@H]1O[C@@H](c2cnc3c(NC4CCC(F)(F)C4)nc(Cl)nn23)[C@H](O)[C@@H]1O (stereo partly drawn) [Compound 49, (((((2R,3S,4R,1S)-5-(2-chloro-4-((3,3-difluorocyclopentyl)amino)imidazo[2,1-f][1,2,4]triazin-7-yl)-3,4-dihydroxytetrahydrofuran-2-yl)methoxy)(hydroxy)phosphoryl)methyl)phosphonic Acid] | < 10 nM | < 1 nM | – |
| C[C@H](Nc1nc(Cl)nn2c([C@@H]3O[C@H](COP(=O)(O)CP(=O)(O)O)[C@@H](O)[C@H]3O)cnc12)c1ccc(F)cc1 [Compound 37, (((((2R,3S,4R,1S)-5-(2-chloro-4-(((S)-1-(4-fluorophenyl)ethyl)amino)imidazo[2,1-f][1,2,4]triazin-7-yl)-3,4-dihydroxytetrahydrofuran-2-yl)methoxy)(hydroxy)phosphoryl)methyl)phosphonic Acid] | < 10 nM | < 1 nM | – |
| O=P(O)(O)CP(=O)(O)OC[C@H]1O[C@@H](c2ccc3c(NCc4ccccc4)ncnn23)[C@H](O)[C@@H]1O [Compound 16, (((((2R,3S,4R,1S)-5-(4-(benzylamino)pyrrolo[2,1-f][1,2,4]triazin-7-yl)-3,4-dihydroxytetrahydrofuran-2-yl)methoxy)(hydroxy)phosphoryl)methyl)phosphonic acid] | 10 to 99 nM | 1 to 9.9 nM | – |
| O=P(O)(O)CP(=O)(O)OC[C@H]1O[C@@H](c2cnc3c(NCC4CCOC4)nc(Cl)nn23)[C@H](O)[C@@H]1O (stereo partly drawn) [Compound 12, (((((2R,3S,4R,1S)-5-(2-chloro-4-(((tetrahydrofuran-3-yl)methyl)amino)imidazo[2,1-f][1,2,4]triazin-7-yl)-3,4-dihydroxytetrahydrofuran-2-yl)methoxy)(hydroxy)phosphoryl)methyl) phosphonic Acid] | < 10 nM | < 1 nM | – |
| O=P(O)(O)CP(=O)(O)OC[C@H]1O[C@@H](c2cnc3c(NC4CCCCC4)nc(Cl)nn23)[C@H](O)[C@@H]1O [Compound 20, (((((2R,3S,4R,1S)-5-(2-chloro-4-(cyclohexylamino)imidazo[2,1-f][1,2,4]triazin-7-yl)-3,4-dihydroxytetrahydrofuran-2-yl)methoxy)(hydroxy)phosphoryl)methyl)phosphonic Acid] | < 10 nM | < 1 nM | – |
| O=P(O)(O)CP(=O)(O)OC[C@H]1O[C@@H](c2cnc3c(NCc4ccccc4)nc(Cl)nn23)[C@H](O)[C@@H]1O [Compound 6, (((((2R,3S,4R,1S)-5-(4-(benzylamino)-2-chloroimidazo[2,1-f][1,2,4]triazin-7-yl)-3,4-dihydroxytetrahydrofuran-2-yl)methoxy)(hydroxy)phosphoryl)methyl)phosphonic Acid] | < 10 nM | < 1 nM | – |
| CN(c1nc(Cl)nn2c([C@@H]3O[C@H](COP(=O)(O)CP(=O)(O)O)[C@@H](O)[C@H]3O)cnc12)[C@H]1CCc2ccccc21 [Compound 30, (((((2R,3S,4R,1S)-5-(2-chloro-4-(((S)-2,3-dihydro-1H-inden-1-yl)(methyl)amino)imidazo[2,1-f][1,2,4]triazin-7-yl)-3,4-dihydroxytetrahydrofuran-2-yl)methoxy)(hydroxy)phosphoryl)methyl)phosphonic Acid] | < 10 nM | < 1 nM | – |
